Assay results reported in the NIST ThermoML archive (doi:10.1016/j.tca.2013.09.006).

Columns and labels:
[1] = mn = molality of the nth substance listed, in mol/kg; settings: 101 kPa, Liquid; for mass density: Vibrating tube method; for speed of sound: vibrating tube:WF =
[2] = 101 kPa, Liquid; for mass density: Vibrating tube method; for speed of sound: vibrating tube

CC1(C)SC2C(NC(=O)C(N)c3ccccc3)C(=O)N2C1C(=O)O (centres undefined) + O
[1]
Settings	mass density, 305.15 K [kg/m3]	mass density, 310.15 K [kg/m3]	mass density, 315.15 K [kg/m3]	speed of sound, 305.15 K [m/s]	speed of sound, 310.15 K [m/s]	speed of sound, 315.15 K [m/s]
m1 = 0.0005	995.062	993.352	991.353	1513.7	1523.7	1532.2
m1 = 0.002	995.271	993.569	991.665	1514.8	1524.8	1533
m1 = 0.004	995.458	993.755	991.87	1516	1526	1534

C[C@H](N)C(=O)N[C@@H](C)C(=O)O [L-alanyl-L-alanine] + O
[1]
Settings	mass density, 305.15 K [kg/m3]	mass density, 310.15 K [kg/m3]	mass density, 315.15 K [kg/m3]	speed of sound, 305.15 K [m/s]	speed of sound, 310.15 K [m/s]	speed of sound, 315.15 K [m/s]
m1 = 0.00215	995.223	993.535	991.641	1514.2	1524.5	1532.9
m1 = 0.00421	995.35	993.662	991.767	1514.4	1524.8	1533
m1 = 0.00596	995.458	993.769	991.873	1514.5	1524.9	1533.1
m1 = 0.00831	995.604	993.913	992.016	1514.7	1525.1	1533.2
m1 = 0.00955	995.68	993.989	992.092	1514.9	1525.3	1533.4
m1 = 0.01169	995.812	994.12	992.222	1515	1525.5	1533.6
m1 = 0.01422	995.968	994.275	992.376	1515.2	1525.6	1533.7
m1 = 0.01594	996.074	994.38	992.48	1515.3	1525.8	1533.9
m1 = 0.01778	996.187	994.493	992.592	1515.5	1526	1534.1
m1 = 0.01983	996.314	994.618	992.716	1515.7	1526.2	1534.2

CC(C)C[C@H](NC(=O)[C@H](C)N)C(=O)O [L-alanyl-L-leucine] + O
[1]
Settings	mass density, 305.15 K [kg/m3]	mass density, 310.15 K [kg/m3]	mass density, 315.15 K [kg/m3]	speed of sound, 305.15 K [m/s]	speed of sound, 310.15 K [m/s]	speed of sound, 315.15 K [m/s]
m1 = 0.00185	995.164	993.476	991.582	1514.3	1524.7	1533.2
m1 = 0.00389	995.246	993.556	991.661	1514.4	1525	1533.4
m1 = 0.00579	995.323	993.631	991.734	1514.6	1525.2	1533.7
m1 = 0.00813	995.416	993.723	991.825	1514.7	1525.4	1533.9
m1 = 0.00966	995.478	993.783	991.884	1514.9	1525.7	1534
m1 = 0.0122	995.579	993.883	991.982	1515	1525.9	1534.3
m1 = 0.01422	995.66	993.962	992.06	1515.1	1526	1534.5
m1 = 0.01589	995.727	994.027	992.124	1515.3	1526.3	1534.7
m1 = 0.01753	995.792	994.092	992.188	1515.5	1526.6	1534.9
m1 = 0.02055	995.913	994.21	992.304	1515.6	1526.7	1535

CC(C)[C@H](NC(=O)[C@H](C)N)C(=O)O [L-alanyl-L-valine] + O
[1]
Settings	mass density, 305.15 K [kg/m3]	mass density, 310.15 K [kg/m3]	mass density, 315.15 K [kg/m3]	speed of sound, 305.15 K [m/s]	speed of sound, 310.15 K [m/s]	speed of sound, 315.15 K [m/s]
m1 = 0.00201	995.187	993.499	991.606	1514.3	1524.8	1533.5
m1 = 0.00414	995.289	993.601	991.707	1514.5	1525	1533.7
m1 = 0.00605	995.381	993.692	991.798	1514.6	1525.2	1534
m1 = 0.00791	995.471	993.781	991.886	1514.8	1525.5	1534.1
m1 = 0.01019	995.58	993.89	991.994	1515	1525.7	1534.3
m1 = 0.01179	995.657	993.966	992.07	1515.2	1525.9	1534.4
m1 = 0.01396	995.761	994.07	992.173	1515.4	1526.1	1534.6
m1 = 0.01551	995.835	994.143	992.246	1515.6	1526.4	1534.8
m1 = 0.01805	995.957	994.264	992.366	1515.8	1526.7	1535
m1 = 0.01971	996.037	994.343	992.445	1515.9	1526.9	1535.2

O [water]
[2]
Settings	mass density [kg/m3]	speed of sound [m/s]
305.15 K	995.09	1513.5
310.15 K	993.403	1523.5
315.15 K	991.51	1532.2
